Data: article PMC8073907, “Peptide targeting of lysophosphatidylinositol-sensing GPR55 for osteoclastogenesis tuning” (Cell Communication and Signaling : CCS, 2021)

Key:
GPR55 = conditions: ref [55]; cited from earlier work
Experimental: GPR55 involvement in osteoclast functions was directly assessed using in-vitro assays of bone resorbing activity. As the transient silencing by GPR55-specific siRNAs in precursor cells was not applicable to this long-term differentiation assay, pharmacological perturbation of GPR55 was carried out with only the most specific antagonists (ML-191, CID16020046) and LPI. RAW264.7 cells were plated on cortical bone slices and RANKL-differentiated for 7 days in the absence or presence of the different GPR55 regulators. At the end of the differentiation, the cells were detached and the resorbing area ...

RAW264.7 cells = experiment: RANKL-induced transcription of osteoclastogenesis markers in RAW264.7 cells (real-time PCR); assay type: cell-based, murine; conditions: RANKL 15 ng/mL, 72 h, 1 µM soybean LPI
Experimental: Total RNA was extracted using RNeasy isolation kits, cDNAs were obtained using QuantiTect Reverse Transcription kits, and real-time PCRs were performed with QuantiTect SYBR Green PCR kits (all from Qiagen, Hilden, Germany), according to the manufacturer instructions. The primers used for the real-time PCRs and their annealing temperatures are listed in the Additional file 1: Table S1. Human hypoxanthine phosphoribosyltransferase 1 (HPRT1) or murine β2-microglobulin were followed as housekeeping genes. The real-time PCR programme consisted of an initial 15 min at 95 °C, and then 45 cycles as follows: 94 °C for 15 s, annealing temperature of each primer for 30 s, and 72 °C for 30 s. The real-time PCR machine used was a LightCycler 480 Instrument II (Roche, Indianapolis, IN, USA).
For transient interference of Gpr55, RAW264.7 cells were plated at 6 × 10^5 cells/well in six-well plates in growth medium without antibiotics. Twenty-four hours later, the cells were transfected with 250 pmol/well non-targeting small-interfering (si)RNAs (si-NT; siGENOME siRNA Pool #2; D-001206-14; Dharmacon, Chicago, IL, USA) or Gpr55-specific siRNAs (si-GPR55; siGENOME mouse GPR55 SMART pool; M-043590-01; Dharmacon) using Lipofectamine LTX and Plus Reagent, according to the manufacturer instructions. Twenty-four hours later, the cells were plated for the different assays or for RNA extraction. The efficiency of interference was monitored by real-time PCR after 72 h of interference, using the primers listed in the Additional file 1: Table S1. β2-microglobulin was followed as a housekeeping gene.
For the osteoclastogenesis in-vitro assay, RAW264.7 cells were plated in differentiation medium (α-MEM with 10% heat-inactivated FBS, 2 mM L-glutamine, 100 U/mL penicillin, and 100 ug/mL streptomycin) at a density of 5 × 10^3 cells/well in 24-well plates on coverslips for morphological analysis, or at 2 × 10^4 cells/well in six-well plates for RNA extraction. Twenty-four hours later and every 48 h, the medium was replaced and the cells were treated with 15–30 ng/mL RANKL with DMSO and/or PBS as carriers, or with GPR55 antagonists/ agonists (0.5 µM ML-191, 30 µM O1918, 0.5 µM CBD, 0.5 μM CID16020046 1 µM soybean LPI, 1 μM ML-184), or with the peptides (150 nM peptide-P1; or the irrelevant peptide, Irr_P). Twenty-four hours after the last addition, the cells were fixed with 4% paraformaldehyde for morphological analyses or harvested for RNA extraction (see above).

[1] = tested on: osteoclasts derived from RAW264.7 cells; experiment: Osteoclast functional assay (bone resorption on bovine cortical bone slices); assay type: cell-based, murine; conditions: 0.5 µM CID16020046, 15 ng/mL RANKL, 7 days
Experimental: RAW264.7 cells were plated in differentiation medium at a density of 1250 cells/100 µL on 0.2-mm-thick bovine cortical bone slices (BoneSlices.com, Jelling, Denmark) in 96-well plates. Six hours later, 100 µL differentiation medium with RANKL (15 ng/mL, final concentration) was added, in the presence of a carrier or in combination with the GPR55 modulators. The media with the different compounds were replaced every 48 h, for a total of 7 days. At the end of this period, the cells were detached with a 10% bleach solution, and the resorption excavations were visualised by using Toluidine Blue staining (Sigma-Aldrich). Images of the resorption areas were obtained under the microscope (SW380T; Swift Optical Instruments, Inc., TX, USA) using the 10 × objective, and acquired with a digital camera (Swiftcam SC1003; Swift Optical Instruments, Inc.). The total eroded surface underwent blinded quantification using ImageJ (NIH), and was subdivided into pit and trench surfaces. Pits were characterised as round excavations with well-defined edges where the ratio between length and width was < 2.0. Trenches were defined as elongated excavations with well-defined edges whose length was at least twice the wide, and with clear signs of continued resorption. The prevalence of trenches was calculated as a proportion (%) of the trench surface relative to the total eroded surface.

Cc1ccc(-c2n[nH]c3c2C(c2cccc(O)c2)N(c2ccc(C(=O)O)cc2)C3=O)cc1 (centres unmarked) [CID16020046]
mode of action on GPR55 (GPR55): GPR55 inverse agonist | reduction of LPI-stimulated Ctr transcription (RAW264.7 cells; 0.5 µM CID16020046): 50% | block of LPI-stimulated Nfatc1 transcription (RAW264.7 cells; 0.5 µM ML-191 or 0.5 µM CID16020046): completely blocked | inhibition of RANKL-promoted osteoclast degrading activity [1]: only slightly inhibited | reduction of relative trench contribution compared to RANKL ([1]; p < 0.05): about 30%
